How the values were obtained:
[1] = microbe, parasite or virus in culture; conditions: Mycobacterium tuberculosis, 96 h, read-out: pIC50 (converted)
[2] = microbe, parasite or virus in culture; conditions: Mycobacterium tuberculosis, 72 h, read-out: pIC50 (converted)

O=C(CCc1ccccc1)N1CCCNCC1
IC50 [1]: > 501 µM
IC50 [2]: 192 µM

COC(=O)C1CCN(C(=O)Cc2cccc(F)c2)CC1
IC50 [1]: > 501 µM
IC50 [2]: 179 µM

CC(C)c1nsc(NC2CCOC3(CCCC3)C2)n1 (stereo unspecified)
IC50 [1]: 6.74 µM
IC50 [2]: 12 µM

Cc1csc(CN(C)CCOc2ccccc2)n1
IC50 [1]: 20.5 µM
IC50 [2]: 23 µM

O=C(COc1ncccn1)Nc1ccc(F)cc1F
IC50 [1]: > 501 µM
IC50 [2]: > 501 µM

O=C(Nc1nnc(-c2cccs2)s1)NC1CCCNC1 (stereo unspecified)
IC50 [1]: > 501 µM
IC50 [2]: 127 µM

CN1CCN(C(=O)c2cc(-c3cccs3)on2)CC1
IC50 [1]: 107 µM
IC50 [2]: 171 µM

CCCNc1nc(CS(=O)(=O)c2ccccc2)cs1
IC50 [1]: > 50.1 µM
IC50 [2]: > 50.1 µM

Nc1cc(-c2cccnc2)on1
IC50 [1]: > 501 µM
IC50 [2]: 284 µM

CN(CCOc1ccc(Cl)cc1)C(=O)C(C)(C)CN
IC50 [1]: 276 µM
IC50 [2]: 216 µM

CCOc1cccc(CNc2nc(N(C)C)n[nH]2)c1
IC50 [1]: 34.2 µM
IC50 [2]: 57.4 µM

COc1cc(OC)cc(C2(F)CCNCC2)c1
IC50 [1]: 287 µM
IC50 [2]: 226 µM

Cn1nc(CCN)c2ccccc21
IC50 [1]: 197 µM
IC50 [2]: 57.8 µM

NC(=O)COc1cccc(CN2CCC(F)CC2)c1
IC50 [1]: > 501 µM
IC50 [2]: > 501 µM

COc1cccc(N2CCC(N)CC2)c1
IC50 [1]: 213 µM
IC50 [2]: 426 µM

CC1Cc2ccccc2N(C(=O)c2csnn2)C1 (stereo unspecified)
IC50 [1]: > 501 µM
IC50 [2]: > 501 µM

CC(C)CC1CCN(S(N)(=O)=O)C1 (stereo unspecified)
IC50 [1]: > 501 µM
IC50 [2]: > 501 µM

c1ccc(CCc2n[nH]c(C3CCC3)n2)cc1
IC50 [1]: > 50.1 µM
IC50 [2]: > 50.1 µM

COc1cccc(C(CO)NC(=O)Cc2ccc(F)c(Br)c2)c1 (stereo unspecified)
IC50 [1]: > 50.1 µM
IC50 [2]: > 50.1 µM

NS(=O)(=O)c1cccc(S(=O)(=O)c2ccc(Cl)cc2)c1
IC50 [1]: 283 µM
IC50 [2]: 71.4 µM

CCCC(C)CS(=O)(=O)NCc1ccncc1 (stereo unspecified)
IC50 [1]: 123 µM
IC50 [2]: 115 µM

COCCN1CCN(C(C)C(=O)Nc2ccnn2C(C)C)CC1 (stereo unspecified)
IC50 [1]: > 50.1 µM
IC50 [2]: > 50.1 µM

COc1cccc(CS(=O)(=O)Nc2ccc(C)nc2)c1
IC50 [1]: > 501 µM
IC50 [2]: 307 µM

CCCC(C#N)NC(=O)c1ccn(-c2ccccc2)n1 (stereo unspecified)
IC50 [1]: > 501 µM
IC50 [2]: 294 µM

O=C(NC1CCCc2occc21)c1cccnc1 (stereo unspecified)
IC50 [1]: 79.9 µM
IC50 [2]: 57.8 µM

Cc1ccc(-n2cc(CN3CCOCC3)c(-c3cccc(C)c3)n2)cc1
IC50 [1]: > 50.1 µM
IC50 [2]: 24.8 µM

Cc1ccc(C(CN)N2CCCC2)o1 (stereo unspecified)
IC50 [1]: > 501 µM
IC50 [2]: 101 µM

CCOC(=O)c1cccnc1NCc1cnn(C)c1C
IC50 [1]: > 501 µM
IC50 [2]: 180 µM

Clc1cnc(NCCNCc2cc[nH]n2)c(Cl)c1
IC50 [1]: > 501 µM
IC50 [2]: 227 µM

CN(CCc1ccccc1)CCS(=O)(=O)CCC(N)=O
IC50 [1]: 175 µM
IC50 [2]: 442 µM

Ic1nnnn1-c1ccccc1
IC50 [1]: 108 µM
IC50 [2]: 147 µM

O=c1c(Cc2ccccc2)c(O)ccn1Cc1cccs1
IC50 [1]: > 50.1 µM
IC50 [2]: > 50.1 µM

O=S(=O)(c1ccco1)N1CCOCc2ccccc21
IC50 [1]: > 501 µM
IC50 [2]: 291 µM

Cc1ccc(N2CCN(C(=O)CCC(F)(F)F)C(C)C2)cc1 (stereo unspecified)
IC50 [1]: > 50.1 µM
IC50 [2]: > 50.1 µM

COc1ccc(NC(=O)CNc2ccc(Br)cc2F)cc1
IC50 [1]: > 50.1 µM
IC50 [2]: > 50.1 µM

COC(CNC(=O)N1CCSCC1)c1ccc(F)cc1 (stereo unspecified)
IC50 [1]: > 501 µM
IC50 [2]: > 501 µM

CCC(=O)c1cccc(S(=O)(=O)NC(CN)C2CC2)c1 (stereo unspecified)
IC50 [1]: > 501 µM
IC50 [2]: > 501 µM

O=C(NCCc1cccnc1)c1cc(C2CC2)on1
IC50 [1]: > 501 µM
IC50 [2]: > 501 µM

CC(C)NC(=O)CSc1nc(C=Cc2cccs2)n[nH]1
IC50 [1]: 103 µM
IC50 [2]: 122 µM

Cn1cc(NC(=O)C2=Cc3ccccc3OC2)cn1
IC50 [1]: > 501 µM
IC50 [2]: > 501 µM

Cn1c(SCCCO)nnc1-c1ccccc1F
IC50 [1]: 279 µM
IC50 [2]: 275 µM

NCc1cccc(OCc2ccccn2)c1
IC50 [1]: > 501 µM
IC50 [2]: 187 µM

CCNc1ccnc(N2Cc3cnn(Cc4ccc(F)cc4)c3C2)n1
IC50 [1]: 27.4 µM
IC50 [2]: > 50.1 µM

NC1CCN(c2ncc(C(F)(F)F)cc2Cl)C1 (stereo unspecified)
IC50 [1]: 83.4 µM
IC50 [2]: 123 µM

CCOC(C)c1nc(Cn2cccn2)cs1 (stereo unspecified)
IC50 [1]: > 50.1 µM
IC50 [2]: > 50.1 µM

COc1coc(CN2CCCC(CCc3ccccc3C)C2)cc1=O (stereo unspecified)
IC50 [1]: 16.2 µM
IC50 [2]: 16.1 µM

NCc1cccc(-c2nc(-c3ccncc3)no2)c1
IC50 [1]: 286 µM
IC50 [2]: > 501 µM

N#Cc1cc(F)c(NCCc2ccc(F)cc2)c(F)c1
IC50 [1]: 22.5 µM
IC50 [2]: > 50.1 µM

CCc1ncc(-c2cn(CCSc3ncn[nH]3)nn2)cn1
IC50 [1]: > 50.1 µM
IC50 [2]: > 50.1 µM

COC(=O)[C@H](C)NC(=O)C1(c2ccccc2F)CC1
IC50 [1]: > 501 µM
IC50 [2]: 187 µM

CCCC(C)N(C)Cc1nnc(-c2ccc(Br)s2)o1 (stereo unspecified)
IC50 [1]: 29.4 µM
IC50 [2]: 1.85 µM

Cc1noc(-c2c[nH]nc2C2CCCN2C(=O)c2ccccc2)c1C (stereo unspecified)
IC50 [1]: > 50.1 µM
IC50 [2]: > 50.1 µM

COC1(CNC(=O)c2cccc(C#N)c2)CCSC1 (stereo unspecified)
IC50 [1]: > 50.1 µM
IC50 [2]: > 50.1 µM

— ChEMBL document CHEMBL3988442, “University of Dundee, Small-Polar-MMV Screening Library” (2021)
